Where two headings read alike, the source gives them in different places.
Key:
Brd2(BD1) = biological target: T1, Brd2(BD1) (Homo sapiens, UniProt P25440); assay: HTRF BET selectivity profile, Brd2(BD1); type: binding; details: for IC50: read-out: Brd2(BD1) IC50; for Ratio 2-1 vs 2-2: selectivity Brd2(BD1) vs Brd2(BD2), HTRF IC50
T1 construct: GST tagged bromodomain proteins were purchased from BPS Bioscience; purchased BPS Bioscience
Method: (§1) HTRF assays were performed in white 384 Well Small Volume™ HiBase Polystyrene Microplates (Greiner) with a total working volume of 20 μL. Compounds were dispensed, with 100 nL per well (0.5% final DMSO), from a concentration stock of 10 mM in 100% DMSO and with serial DMSO dilutions, using an Echo® 550 robot from the Access Labcyte platform (Labcyte) and based on the transfer of liquid by acoustic wave. Then, 19.5 μL of buffer is added, using a Multidrop Combi (Thermo Fisher Scientific). […] All HTRF reagents (donor and acceptor) were purchased from CisBio Bioassays and reconstituted according to the supplier protocols. The peptide was purchased from Genic Bio Synthetic. The BRD4(1) protein was produced and purified in the laboratory.
(§2) Percentage of inhibition was calculated using the following equation: % inhibition=[(compound signal)−(min signal)]/[(max signal)−(min signal)]*100, where ‘max signal’ is the signal ratio with the compound vehicle alone (DMSO) and ‘min signal’ the signal ratio without peptide.
(§3) Selectivity profiles of bromodomain inhibitors were performed as described in HTRF screen section. […] HTRF detection reagents (EPIgeneous™ Binding Domain kits) were purchased from Cisbio Bioassays and used according to supplier's protocol. GST tagged bromodomain proteins were purchased from BPS Bioscience and histone peptide from Genic Bio Synthetic.

Brdt(BD1) = biological target: T2, Brdt(BD1) (Homo sapiens, UniProt Q58F21); assay: HTRF BET selectivity profile, Brdt(BD1); type: binding
T2 construct: GST tagged bromodomain proteins were purchased from BPS Bioscience; purchased BPS Bioscience
Method: (§4) HTRF assays were performed in white 384 Well Small Volume™ HiBase Polystyrene Microplates (Greiner) with a total working volume of 20 μL. Compounds were dispensed, with 100 nL per well (0.5% final DMSO), from a concentration stock of 10 mM in 100% DMSO and with serial DMSO dilutions, using an Echo® 550 robot from the Access Labcyte platform (Labcyte) and based on the transfer of liquid by acoustic wave. Then, 19.5 μL of buffer is added, using a Multidrop Combi (Thermo Fisher Scientific). Finally, for each assay, 200 nL of master mix (protein+donor+acceptor) and 200 nL of peptide Is added in the assay wells according to the final concentration and buffer described in Table 3, using the Echo® 550 robot (Labcyte). The IC50 measurements were performed in triplicates (Table 2 and 3). All HTRF reagents (donor and acceptor) were purchased from CisBio Bioassays and reconstituted according to the supplier protocols. The peptide was purchased from Genic Bio Synthetic. The BRD4(1) protein was produced and purified in the laboratory. HTRF signals were measured, after a final incubation (3 h or 6 h or overnight at room temperature or 4° C., according to the bromodomain), using a PHERAstar FS (BMG Labtech) with an excitation filter at 337 nm and fluorescence wavelength measurement at 620 and 665 nm, an integration delay of 60 μs and an integration time of 500 μs. Results were analyzed with a two-wavelengths signal ratio: [intensity (665 nm)/intensity (620 nm)]*104.
as §2, §3

Brd4(BD2) = biological target: T3, Brd4(BD2) (Homo sapiens, UniProt O60885); assay: HTRF BET selectivity profile, Brd4(BD2); type: binding
T3 construct: GST tagged bromodomain proteins were purchased from BPS Bioscience; purchased BPS Bioscience
Method: as §4, §2, §3

Brd3(BD2) = biological target: T4, Brd3(BD2) (Homo sapiens, UniProt Q15059); assay: HTRF BET selectivity profile, Brd3(BD2); type: binding
T4 construct: GST tagged bromodomain proteins were purchased from BPS Bioscience; purchased BPS Bioscience
T4 sequence (Q15059 306-415 limits assumed): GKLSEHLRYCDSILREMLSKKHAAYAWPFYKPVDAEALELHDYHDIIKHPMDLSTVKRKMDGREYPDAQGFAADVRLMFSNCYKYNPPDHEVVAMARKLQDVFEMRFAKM
Method: as §4, §2, §3

Brd2(BD2) = biological target: T5, Brd2(BD2) (Homo sapiens, UniProt P25440); assay: HTRF BET selectivity profile, Brd2(BD2); type: binding; details: read-out: Brd2(BD2) IC50
T5 construct: GST tagged bromodomain proteins were purchased from BPS Bioscience; purchased BPS Bioscience
T5 sequence (P25440 344-453 limits assumed): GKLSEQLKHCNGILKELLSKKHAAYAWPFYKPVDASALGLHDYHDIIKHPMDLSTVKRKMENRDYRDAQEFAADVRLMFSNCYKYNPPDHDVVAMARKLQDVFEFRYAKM
Method: as §1, §2, §3

BRD4(BD1) [1] = biological target: T6, BRD4(BD1) (Homo sapiens, UniProt O60885); assay: Isothermal Titration Calorimetry; type: binding; details: ITC; read-out: Binding affinity (Kd) to BRD4(1) by Isothermal Titration Calorimetry
Method: FIG. 1. Isothermal Titration Calorimetry (ITC) of 43c. Thermogram (top) and non-linear least squares fit model of the integrated data (bottom) at 15° C. of Brd4 (BD1) […] as a function of the molar ratio of ligand to the protein.
ITC was used to evaluate the thermodynamics parameters of the binding between BRD4 (BD1) and the selected compounds. Titrations were carried out on a MicroCal ITC200 microcalorimeter (GE Healthcare, Piscataway, N.J.). Each experiment was designed using a titrant concentration (protein in the syringe generally between 100 and 400 μM) set 10 to 15 times the analyte concentration (compound in the cell generally between 10 and 40 μM) and using 13 injections at 25° C. A first small injection (generally 0.2 μL) was included in the titration protocol in order to remove air bubbles trapped in the syringe prior titration. Raw data were scaled after setting the zero to the titration saturation heat value. Integrated raw ITC data were fitted to a one site non-linear least squares fit model using the MicroCal Origin plugin as implemented in Origin 7 (Origin Lab). Finally, ΔG and TΔS values were calculated from the fitted ΔH and KA values using the equations ΔG=−R.T.inKA and ΔG=ΔH−TΔS.

Jurkat cells = assay: Cell Titer-Glo cell viability assay, Jurkat; type: cell-based; details: Homo sapiens, 72 h, mean of three experiments, NA = IC50 > maximal concentration used
Method: (§5) The human leukemia cell line Jurkat (ATCC® TIB-152) and Molm14 was maintained in RPMI-1640 medium or MEMα, respectively and supplemented both with 10% FBS at 37° C. and 5% CO2.
(§6) In antiproliferative assays, compounds were assayed for their growth inhibiting activity towards the described cancer cell lines using the Cell Titer-Glo Luminescent Cell Viability Assay as described by the manufacturer (Promega Corporation). Briefly, 10.000 cells were plated onto 96 well-plates (white with clear bottom (3610, Corning Costar)) in 90 μL media per well immediately before assay. 10 μL of compounds were added at different concentrations (ranging from 50 μM to 6 nM) to each well and cell cultures were incubated 37° C. during 72 h. Vehicle (DMSO) was used as negative control, JQ1 (a pan-BET inhibitor) was used as positive control and all compounds were tested in constant percentage of DMSO (1%). After addition of 50 μL Cell Titer-GLO, shaking 2 minutes and incubating at room temperature 10 minutes, the Luminescence was measured using a Centro luminometer LB960 (Berthold). Dose-response curves were generated and effective dose 50 values (EC50) were calculated using non-linear regression analysis (Graph Pad Prism).

61 bromodomains = assay: Thermal shift assay selectivity profile on 61 bromodomains; type: binding; details: compound at 25 μM
Method: FIG. 3. Thermal Shift Assay (TSA) of 43c. The evaluation was performed on 61 bromodomains. A cut-off at +/−3.5° C. was set.
TSA “Bromoscan” assays (Reaction Biology) were performed in 384 well RT-PCR plate (BioRad) with a total working volume of 15 μL. The “BromoMelT™, containing the 61 GST- or His-tagged-bromodomains, SYPRO® Orange and a mix compounds as control, was purchased from Reaction Biology. For each point, 3 μL of protein (1×) and 12 μL master mix (buffer+SYPRO® Orange+compound at 25 μM or control mix compounds or DMSO (0.5%)) were mixed in plate. The plate was placed in a CFX384 RTQPC (BioRad), and heated 10 seconds at 25° C., then the temperature was increased from 25° C. to 90° C., by increment of 0.5° C. every 30 seconds. The fluorescence was recorded using FRET filters.

BRD4(BD1) [2] = biological target: T6, BRD4(BD1); assay: HTRF assay, BRD4(BD1)/histone peptide interaction; type: binding; design: made in house; details: for IC50: HTRF; for Ratio 4-1 vs 4-2: selectivity Brd4(BD1) vs Brd4(BD2), HTRF IC50
Brd3(BD1) = Brd3(BD1) (Homo sapiens, UniProt Q15059); assay: HTRF BET selectivity profile, Brd3(BD1); type: binding; design: GST tagged bromodomain proteins were purchased from BPS Bioscience; purchased BPS Bioscience; details: for Ratio 3-1 vs 3-2: selectivity Brd3(BD1) vs Brd3(BD2), HTRF IC50
Chain of Brd3(BD1) (Q15059 34-140 limits assumed): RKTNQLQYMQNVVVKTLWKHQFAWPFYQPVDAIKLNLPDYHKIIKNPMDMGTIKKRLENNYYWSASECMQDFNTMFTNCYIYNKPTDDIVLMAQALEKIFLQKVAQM
Method: as §1, §2, §3

ATAD2 = biological target: T7, ATAD2 (Homo sapiens, UniProt Q6PL18); assay: HTRF selectivity profile, ATAD2 (non-BET bromodomain control); type: binding
T7 construct: GST tagged bromodomain proteins were purchased from BPS Bioscience; purchased BPS Bioscience
T7 sequence (Q6PL18 980-1092 limits assumed): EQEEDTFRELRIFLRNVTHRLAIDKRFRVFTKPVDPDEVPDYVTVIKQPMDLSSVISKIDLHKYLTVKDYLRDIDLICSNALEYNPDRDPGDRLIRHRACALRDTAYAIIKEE
Method: HTRF assays were performed in white 384 Well Small Volume™ HiBase Polystyrene Microplates (Greiner) with a total working volume of 20 μL. Compounds were dispensed, with 100 nL per well (0.5% final DMSO), from a concentration stock of 10 mM in 100% DMSO and with serial DMSO dilutions, using an Echo® 550 robot from the Access Labcyte platform (Labcyte) and based on the transfer of liquid by acoustic wave. Then, 19.5 μL of buffer is added, using a Multidrop Combi (Thermo Fisher Scientific). […] HTRF signals were measured, after a final incubation (3 h or 6 h or overnight at room temperature or 4° C., according to the bromodomain), using a PHERAstar FS (BMG Labtech) with an excitation filter at 337 nm and fluorescence wavelength measurement at 620 and 665 nm, an integration delay of 60 μs and an integration time of 500 μs. Results were analyzed with a two-wavelengths signal ratio: [intensity (665 nm)/intensity (620 nm)]*104.
Percentage of inhibition was calculated using the following equation: % inhibition=[(compound signal)−(min signal)]/[(max signal)−(min signal)]*100, where ‘max signal’ is the signal ratio with the compound vehicle alone (DMSO) and ‘min signal’ the signal ratio without peptide. […]

Molm14 cells = assay: Cell Titer-Glo cell viability assay, Molm14; type: cell-based; details: Homo sapiens, MOLM-14, 72 h, mean of three experiments, NA = IC50 > maximal concentration used
Method: as §5, §6

c-Myc = details: known inhibitors, background statement; cited from earlier work
acute leukemia = details: phase I study; cited from earlier work
[3] = system: BD2 domain of BRD2 and BRD3; details: cited from earlier work
[4] = mean of three experiments, NA = IC50 > 50 μM, read-out: Brd4(8D1) IC50
[5] = triplicates, NA = IC50 > maximal concentration of compound used

T1 sequence (P25440 74-180 limits assumed): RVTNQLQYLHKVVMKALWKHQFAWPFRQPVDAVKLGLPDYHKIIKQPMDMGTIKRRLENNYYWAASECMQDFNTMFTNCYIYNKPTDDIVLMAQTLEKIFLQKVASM

IC50 (Brd2(BD1))	Ratio 2-1 vs 2-2 (Brd2(BD1))	IC50 (Brdt(BD1))	IC50 (Brd4(BD2))	IC50 (Brd3(BD2))	IC50 (Brd2(BD2))	Kd (BRD4(BD1) [1])	IC50 (Jurkat cells)	IC50 (BRD4(BD1) [2]; [4])	IC50 (BRD4(BD1) [2]; read-out: IC50 on BRD4(BD1) activity (concentration that inhibits protein-protein interaction by 50%), triplicates, NA = IC50 > maximal concentration of compound used)	Ratio 4-1 vs 4-2 (BRD4(BD1) [2])	IC50 (Brd3(BD1))	Ratio 3-1 vs 3-2 (Brd3(BD1))	IC50 (ATAD2)	IC50 (Molm14 cells)	IC50 (BRD4(BD1) [2]; [5])	Structure (SMILES)	Bromodomain selectivity profile by thermal shift assay (61 bromodomains)	effect on c-Myc expression (c-Myc)	clinical response in acute leukemia (acute leukemia)	bromodomain binding preference [3]
336 nM	5	0.356 µM	2.78 µM	3.47 µM	1.61 µM	129 nM	39.5 µM	283 nM	283 nM	10	456 nM	8	–	–	–	CCn1cnc2c1c(=O)[nH]c(=O)n2Cc1ccc(CNS(=O)(=O)c2ccc3c(c2)CCCC(=O)N3)cc1 [Compound 27c]	pan-BET selective	–	–	–
3310 nM	5	19.7 µM	17.7 µM	13.5 µM	16 µM	–	26.5 µM	450 nM	–	39	897 nM	15	24.6 µM	10.6 µM	450 nM	CCn1cnc2c1c(=O)[nH]c(=O)n2Cc1ccc(CNS(=O)(=O)c2ccc(-c3ccccc3)cc2)cc1 [Compound 29b]	–	–	–	–
868 nM	3	1.18 µM	4.59 µM	3.16 µM	2.49 µM	641 nM	10.3 µM	510 nM	–	9	633 nM	5	–	9.2 µM	510 nM	CCn1cnc2c1c(=O)[nH]c(=O)n2Cc1ccc(CNS(=O)(=O)c2ccc(Oc3ccccc3)cc2)cc1 [Compound 30c, N-(4-((7-ethyl-2,6-dioxo-1,2,6,7-tetrahydro-3H-purin-3-yl)methyl)benzyl)-4-phenoxybenzenesulfonamide]	BRD4(1) and BRD3(1) selective	–	–	–
1460 nM	9	8.51 µM	9.71 µM	13.5 µM	12.8 µM	433 nM	19.4 µM	355 nM	–	27	596 nM	23	–	1.8 µM	355 nM	CCn1cnc2c1c(=O)[nH]c(=O)n2Cc1ccc(CNS(=O)(=O)c2ccc(OCc3ccccc3)cc2)cc1 [Compound 31a]	not pan-BET selective	–	–	–
–	–	–	–	–	–	–	–	–	–	–	–	–	–	–	–	COc1cc2c(cc1-c1c(C)noc1C)ncc1[nH]c(=O)n([C@H](C)c3ccccn3)c12 [I-BET151]	–	strong downregulation of c-Myc	–	–
–	–	–	–	–	–	–	–	–	–	–	–	–	–	–	–	Cc1sc2c(c1C)C(c1ccc(Cl)cc1)=N[C@@H](CC(=O)OC(C)(C)C)c1nnc(C)n1-2 [JQ1]	–	strong downregulation of c-Myc	–	–
–	–	–	–	–	–	–	–	–	–	–	–	–	–	–	–	Cc1sc2c(c1C)C(c1ccc(Cl)cc1)=N[C@@H](CC(=O)Nc1ccc(O)cc1)c1nnc(C)n1-2 [OTX015, (6S)-4-(4-chlorophenyl)-N-(4-hydroxyphenyl)-2,3,9-trimethyl-6H-thieno[3,2-f][1,2,4]triazolo[4,3-a][1,4]diazepine-6-acetamide]	–	–	induced remissions, including complete remission in two patients with refractory disease	–
–	–	–	–	–	–	–	–	–	–	–	–	–	–	–	–	COc1cc(OC)c2c(=O)[nH]c(-c3cc(C)c(OCCO)c(C)c3)nc2c1 [RVX-208, 2-[4-(2-hydroxyethoxy)-3,5-dimethylphenyl]-5,7-dimethoxy-4(3H)-quinazolinone]	–	no significant effect	–	binds preferentially to the BD2 domain of BRD2 and BRD3
